Consider eight molecules from patent publication US20220362122A1, “Hair Treatment Compositions With Amine Derivatives” (ELC Management LLC, priority 2021, published 2022).

The test system of data set [1] is outer root sheath cells. Nature of the data set: MultiTox-Fluor Multiplex Cytotoxicity Assay, outer root sheath cells. It is filed as cell-based. The following applies: for IC50: greater IC50 = less stress on the cells, unit inferred; for toxicity to the cell, comparison in words: outer root sheath cells. As for the experimental part: (§1) The effects of alkalizer compositions on outer root sheath cells and on keratinocytes was evaluated. The MultiTox-Fluor Multiplex Cytotoxicity Assay (Promega Corp., Madison, Wis.) simultaneously measures two protease activities: one is a marker of cell viability, and the other is a marker of cytotoxicity. In the assays, the responses of outer root sheath cells and keratinocytes to various concentrations of alkalizers were measured, and IC50, the concentration that provokes a mid-height response (midway between the baseline response and maximal response), was determined.

The conditions of data set [2]: for L Value: single alkalizer composition + volume 40 oxidizer developer on hair tresses, 37° C., 45 minutes, virgin 19; for Lifting level normalized to NH3•H2O / Relative lifting level in percentage (LVirgin-LAlkalizer)/(LVirgin-LNaOH) / ΔL (change in color lifting) LVirgin-LAlkalizer: single alkalizer compositions, Table 5; for lifting of natural hair color, comparison in words: single alkalizer/oxidizer mixtures.

Data set [3] can be described thus: pH of alkalizer composition.
For data set [4] the following is noted: alkalizer composition; 22° C., T-F spindle, 6 rpm.
The test system of data set [5] is keratinocytes. Nature of the data set: MultiTox-Fluor Multiplex Cytotoxicity Assay, keratinocytes. It is filed as cell-based. The settings on record: for toxicity to the cell, comparison in words: keratinocytes; for IC50: Keratinocyte, greater IC50 = less stress on the cells, unit inferred. As for the experimental part:
as §1

The conditions of data set [6]: alkalizer composition.
For data set [7], the system named is keratin in hair.
Data set [8] is described as follows: Tensile strength: break stress of treated hair fibers. The settings on record: hair fibers after alkalizer composition + oxidant.
For data set [9], the system named is keratin in hair. As to the kind of experiment: DSC analysis: keratin denaturation temperature of treated hair. Background: DSC measures the heat that a sample takes up or gives off during a temperature scan.
The conditions of data set [10]: active component; cited from earlier work.
Setting [11] is: alkalizer composition: Table 2 base + alkalizer, same molar percentage.
Where [12] appears, read: single alkalizer compositions, Table 4A.

Entries after “also recorded” stand apart in the source; their conditions may differ. Read-outs that look alike come from different tables or passages of the source.

Turning to `CCC(N)(CO)CO` [AEPD, 2-Amino-2-ethyl-1,3-propanediol], in data set [1], the IC50 is 87 mM and the “toxicity to the cell, comparison in words” value (“toxicity to the cell” below) is “significantly less toxic than ammonium hydroxide”. Moreover, the “L* value” in [2] (Table 7 AEPD-NH3 series, mole ratio AEPD/NH3, virgin hair 20.2) is recorded as 30. For the same molecule, the “L* value” in [2] (Table 12 AEPD-Tris series, mole ratio AEPD/Tris, virgin hair 20.4) is recorded as 30.4. Moreover, in data set [2], the “L Value” is 30, the “Lifting level normalized to NH3•H2O” value was found to be 0.73, the “Relative lifting level in percentage (LVirgin-LAlkalizer)/(LVirgin-LNaOH)” value (“Relative lifting level in percentage” below) amounted to 62.50% and the “ΔL (change in color lifting) LVirgin-LAlkalizer” value is given as −11. The “lifting of natural hair color, comparison in words” value (“lifting of natural hair color” below) in data set [2] is “not quite as good as secondary amine alkalizer, DEA, but close”. The pH in data set [3] (setting [11]) was found to be 10.33. In addition, in data set [4], the “Viscosity (cP × 10^5)” value is reported as 4.47 cP × 10^5. In data set [5], the “toxicity to the cell” value was “significantly less toxic than ammonium hydroxide”. Also, the “Alkalinity” value in data set [6] was found to be 2.40 mL/g. Further, in data set [7], the “% Relative damage level compared to NaOH (TVirgin-TAlkalizer)/(TVirgin-TNaOH)” value (“% Relative damage level compared to NaOH” for short) amounted to 29.18%; the “Damage level normalized to NH3•H2O” value is 1.49; the “denaturation temperature in binary combinations, in words” value is reported as “lowered the denaturation temperature, but only slightly”; the “hair damage / denaturation temperature, comparison in words” value (“hair damage / denaturation temperature” for short) was “performed significantly better than MEA and AMP”. Further, the “ΔT (change in denaturation temperature) TVirgin-TAlkalizer” value in data set [7] amounted to 4.17.

Turning to `CC(C)(N)CO` [AMP, aminomethyl propanol, reference compound], the “toxicity to the cell” value in [1] was “more toxic to the cell than ammonium hydroxide”. Also, in data set [2], the “L Value” worked out at 32.5, the “Lifting level normalized to NH3•H2O” value came out at 0.90, the “Relative lifting level in percentage” value turned out to be 76.70% and the “ΔL (change in color lifting) LVirgin-LAlkalizer” value is −13.5. Moreover, the pH in [3] (setting [11]) was 10.91. For the same molecule, the “Viscosity (cP × 10^5)” value in data set [4] came to 1.81 cP × 10^5. Besides, the “toxicity to the cell” value in data set [5] is on record as “more toxic to the cell than ammonium hydroxide”. The “Alkalinity” value in [6] came to 2.32 mL/g. For the same molecule, in data set [7], the “% Relative damage level compared to NaOH” value is on record as 60.11%, the “Damage level normalized to NH3•H2O” value stood at 3.08 and the “ΔT (change in denaturation temperature) TVirgin-TAlkalizer” value amounted to 8.59.

`CC(N)(CO)CO` [AMPD, 2-Amino-2-methyl-1,3-propanediol]: in [1], the “toxicity to the cell” value is recorded as “significantly less toxic than ammonium hydroxide”. Besides, in data set [2], the “Lifting level normalized to NH3•H2O” value was found to be 0.87; the “ΔL (change in color lifting) LVirgin-LAlkalizer” value was −13; the “lifting of natural hair color” value is “almost as good as MEA and ammonium hydroxide”. In data set [3], this molecule came in with a pH of 10.28. In data set [4], the “Viscosity (cP × 10^5)” value was 3.84 cP × 10^5. Further, the “toxicity to the cell” value in data set [5] is “significantly less toxic than ammonium hydroxide”. In [6], the “Alkalinity” value was determined as 2.49 mL/g. In addition, in data set [7], the “Damage level normalized to NH3•H2O” value worked out at 1.63 and the “ΔT (change in denaturation temperature) TVirgin-TAlkalizer” value was 4.54.

Consider `CN(C)C(C)(C)CO` [DMAMP, 2-Dimethyl-amino-2-methyl-1-propanol], for which, in data set [1], the half-maximal inhibitory concentration (IC50) is 18 mM and the “toxicity to the cell” value is on record as “more toxic than ammonium hydroxide, but less toxic than conventional replacement AMP; also recorded: more toxic to the cell than ammonium hydroxide”. The “L* value” in data set [2] (Table 8A DMAMP-NH3 series, mole ratio DMAMP/NH3, virgin hair 20.3) amounted to 26. Also, the “L* value” in data set [2] (Table 8B DMAMP-NH3 in low DMAMP percentages, mole ratio DMAMP/NH3, virgin hair 20.3) stood at 24.9. Further, in [2], the “L Value” stood at 26, the “Lifting level normalized to NH3•H2O” value was 0.47, the “Relative lifting level in percentage” value is listed as 39.77% and the “ΔL (change in color lifting) LVirgin-LAlkalizer” value was −7. For the same molecule, the pH in data set [3] (setting [11]) was determined as 11.15. In addition, in data set [4], the “Viscosity (cP × 10^5)” value is on record as 0.211 cP × 10^5. In [5], the half-maximal inhibitory concentration (IC50) came out at 33 mM and the “toxicity to the cell” value is “more toxic than ammonium hydroxide, but less toxic than conventional replacement AMP; also recorded: less toxic to keratinocytes than MEA; also recorded: more toxic to the cell than ammonium hydroxide”. The “Alkalinity” value in [6] was determined as 2.38 mL/g. In addition, in [7], the “% Relative damage level compared to NaOH” value amounted to 18.05%; the “Damage level normalized to NH3•H2O” value came out at 0.92; the “denaturation temperature in binary combinations, in words” value is “raised the denaturation temperature”; the “hair damage / denaturation temperature” value is listed as “less damaging to hair than the ammonium hydroxide composition”. In [7], the “ΔT (change in denaturation temperature) TVirgin-TAlkalizer” value stood at 2.58.

With `CN(C)CCCO` [DMAP, 3-Dimethyl-amino-1-propanol], the “break stress / fiber damage, comparison in words” value in data set [8] is reported as “cause a similar amount of damage or less damage than their primary amine analogs”. Further, in [2], the “Lifting level normalized to NH3•H2O” value came out at 0.53; the “Relative lifting level in percentage” value stood at 45.45%; the “ΔL (change in color lifting) LVirgin-LAlkalizer” value was −8; the “lifting of natural hair color” value was “performed significantly less well than ammonium hydroxide”. In data set [3], the pH is on record as 10.58. Further, the “Viscosity (cP × 10^5)” value in data set [4] was found to be 2.77 cP × 10^5. Also, the “hair damage / denaturation temperature” value in data set [9] (DSC, single alkalizer compositions) is “performed the closest to ammonium hydroxide; also recorded: less damaging to hair than the ammonium hydroxide composition; also recorded: a better performer than ammonia”. For the same molecule, the “Denaturation Temperature (° C.)” value in [9] (single alkalizer composition + volume 40 (12%) oxidizer developer on hair tresses, 37° C., 45 minutes, virgin hair 150.42) came out at 147.80 °C. Moreover, in [9] (setting [12]), the “% Relative damage level compared to NaOH” value worked out at 18.33%, the “Damage level normalized to NH3•H2O” value came to 0.94 and the “ΔT (change in denaturation temperature) TVirgin-TAlkalizer” value came out at 2.62. Moreover, the “Alkalinity” value in [6] is 2.32 mL/g. Besides, the pKa in [10] is 9.27.

Regarding `CN(C)CC(O)CO` (stereo not shown) [DMAPD, 3-(dimethylamino)-1,2-propanediol], the “toxicity to the cell” value in [1] was “significantly less toxic than ammonium hydroxide”. Further, in data set [2], the “L Value” was 25.5, the “Lifting level normalized to NH3•H2O” value is reported as 0.43, the “Relative lifting level in percentage” value was 36.93% and the “ΔL (change in color lifting) LVirgin-LAlkalizer” value is −6.5. In addition, in data set [3] (setting [11]), the pH amounted to 10.37. For the same molecule, the “Viscosity (cP × 10^5)” value in data set [4] is 3.23 cP × 10^5. Also, the “toxicity to the cell” value in data set [5] is on record as “significantly less toxic than ammonium hydroxide”. In addition, the “Alkalinity” value in data set [6] came to 2.57 mL/g. In addition, in [7], the “% Relative damage level compared to NaOH” value came to 6.72%; the “Damage level normalized to NH3•H2O” value was 0.34; the “hair damage / denaturation temperature” value is “less damaging to hair than the ammonium hydroxide composition”; the “ΔT (change in denaturation temperature) TVirgin-TAlkalizer” value was determined as 0.96.

With `NCC(O)CO` (stereo not shown) [Isoserinol, 3-Amino-1,2-propanediol], in [1], the midpoint of inhibition, the IC50, lay at 56.3 mM and the “toxicity to the cell” value is “significantly less toxic than ammonium hydroxide”. Moreover, in data set [2], the “L Value” came to 36, the “Lifting level normalized to NH3•H2O” value is reported as 1.13, the “Relative lifting level in percentage” value is 96.59% and the “ΔL (change in color lifting) LVirgin-LAlkalizer” value was −17. For the same molecule, the “lifting of natural hair color” value in data set [2] was “significantly better than AMP and about the same as MEA, at lifting hair color; also recorded: better at lifting natural hair color than the ammonium hydroxide/oxidizer mixture; also recorded: about the same effectiveness as MEA, and significantly better effectiveness than AMP”. For the same molecule, in data set [3] (setting [11]), the pH is on record as 10.56. Further, in [4], the “Viscosity (cP × 10^5)” value was 3.75 cP × 10^5. Moreover, in data set [5], the 50% inhibitory concentration (IC50) amounted to 97 mM and the “toxicity to the cell” value is reported as “significantly less toxic than ammonium hydroxide”. Further, the “Alkalinity” value in data set [6] is 2.45 mL/g. For the same molecule, in data set [7], the “% Relative damage level compared to NaOH” value was 40.80%; the “Damage level normalized to NH3•H2O” value amounted to 2.09; the “hair damage / denaturation temperature” value was “performed significantly better than MEA and AMP”; the “ΔT (change in denaturation temperature) TVirgin-TAlkalizer” value is 5.83.

Regarding `NCCO` [MEA, monoethanolamine, reference compound], in data set [1], it took 21.4 mM to reach half-maximal inhibition (IC50) and the “toxicity to the cell” value is reported as “more toxic to the cell than ammonium hydroxide”. In addition, in [2], the “L Value” was found to be 36 and the “ΔL (change in color lifting) LVirgin-LAlkalizer” value was −17. Also, the pH in [3] (setting [11]) came to 10.85. The “Viscosity (cP × 10^5)” value in data set [4] is given as 3.02 cP × 10^5. Further, in [5], the midpoint of inhibition, the IC50, lay at 23 mM and the “toxicity to the cell” value is given as “more toxic to the cell than ammonium hydroxide”. The “Alkalinity” value in data set [6] came out at 2.35 mL/g. Moreover, in data set [7], the “Damage level normalized to NH3•H2O” value stood at 3.03 and the “ΔT (change in denaturation temperature) TVirgin-TAlkalizer” value amounted to 8.46.

As a reminder, the IC50 is the concentration that inhibits the measured activity by half. Higher therefore signals a need for much substance. One may read the pKa as the negative logarithm of the acid dissociation constant.
